# Test results as given in patent publication US20240109934A1, “ANTIBIOTICS WITH IMPROVED DRUG RESISTANCE PROFILE” (priority 2021, published 2024).
# Like-named read-outs stand apart in the source and are kept apart here.
# Key:
# [1] = tested on: human foreskin fibroblasts (HFF-1); test: Cell viability, Alamar Blue assay; format: cell-based; conditions: 72 h incubation, error SEM n = 2, read-out: IC50, Mammalian Toxicity in HFF-1
# Method: Cell Culture. HFF-1 cells were obtained from ATCC. HFF-1 cells were grown in DMEM with 15% fetal bovine serum (Gemini Benchmark, Cat #100-106), 100 U/mL penicillin, and 100 μg/mL streptomycin. All cells were cultured at 37° C. in a 5% CO2 environment. Media was prepared by the University of Illinois School of Chemical Sciences Cell Media Facility.
# Cell Viability. Cells were harvested, seeded in a 96 well-plate and allowed to adhere. Cells were treated with investigational compounds in DMSO (1% final concentration). Cells were incubated for 72 h before viability was assessed by the Alamar Blue Assay. Raptinal ([…]) was used as a dead control.
# [2] = Mouse liver microsome stability assay; format: in vitro ADME; conditions: 3 h at 37° C., LC-MS/MS, ± SEM of 3 biological replicates
# Method: Mouse Liver Microsome Stability Assay. A mixture of PBS (pH 7.4), NADPH regenerating system solution A (Corning Life Sciences), and NADPH regenerating system solution B (Corning Life Sciences) was incubated at 37° C. in a shaking incubator for 5 min. Next, compound was added in DMSO (final concentration 50 μM, 0.5% DMSO) before ice-cold mouse liver microsomes (Thermo Fisher, male CD-1 mice, pooled) were added (final protein concentration of 1 mg/mL). An aliquot was immediately removed, quenched with an equal volume of 100 μM internal standard and centrifuged at 13,000 rcf for 3 min. The reactions were incubated at 37° C. in a shaking incubator for 3 h. A second aliquot was removed and quenched. Samples were analyzed with the 5500 QTRAP LC/MS/MS system (Sciex, Framingham, MA) in Metabolomics Lab of Roy J. Carver Biotechnology Center, University of Illinois at Urbana-Champaign. Software Analyst 1.6.2 was used for data acquisition and analysis. The 1200 series HPLC system (Agilent Technologies, Santa Clara, CA) includes a degasser, an autosampler, and a binary pump. The LC separation was performed on an Agilent Sb-Aq column (4.6×50 mm, […]) with mobile phase A (0.1% formic acid in water) and mobile phase B (0.1% formic acid in acetonitrile). The flow rate was 0.3 mL/min. The linear gradient was as follows: 0-3 min, 100% A; 10-16 min, 5% A; 16.5-22 min, 100% A. The autosampler was set at 10° C. The injection volume was 1 μL. Mass spectra were acquired under both positive (ion spray voltage was +5500 V) and negative (ion spray voltage was −4500 V) electrospray ionization (ESI). The source temperature was 450° C. The curtain gas, ion source gas 1, and ion source gas 2 were 33, 65, and 60 psi, respectively. Multiple reaction monitoring (MRM) was used for quantitation.
# S. aureus ATCC 29213 [3] = test: MIC by micro-dilution broth method (CLSI); format: cell-based; conditions: for Antibacterial activity relative to FA: S. aureus ATCC 29213 MIC; for MIC: Staphylococcus aureus, ATCC29213, WT S. aureus ATCC 29213, n = 3, read-out: MIC Without Human Serum
# S. aureus ATCC 29213 [4] = test: Resistance frequency, large inoculum method; format: cell-based
# Method: Selection of Resistant Mutants. Resistant mutants were selected via the large inoculum method. Briefly, S. aureus ATCC 29213 (1×10^9 CFU) were plated on 100 mm plates of LB agar containing 4, 2, 1, 0.5, and 0.25 μg/mL.
# S. aureus 29213 = test: MIC shift with 50% human serum; format: cell-based; conditions: S. aureus 29213, 50% human serum vs none
# Method: Antimicrobial Susceptibility Tests. Susceptibility testing was performed in biological triplicate, using the micro-dilution broth method as outlined by the Clinical and Laboratory Standards Institute. […] Human serum (Ultrafiltrate, unspecified gender, 30K Dalton membrane filtered) was purchased from BioIVT (Hicksville, NY).
# Mouse MTD / tolerability = conditions: mouse, in vivo, ip, 50 mg/kg
# Method: The protocol was approved by the IACUC at the University of Illinois at Urbana-Champaign (Protocol Number: 16144 and 19181). In these studies, 10- to 12-week-old female C57BL/6 mice purchased from Charles River were used. The maximum tolerated dose (MTD) of single compound was determined first. […] All the mice were monitored for signs of toxicity for 2 weeks. For multiple doses, the compound was given by daily IP for 4 consecutive days, and mice were monitored for signs of toxicity for 1 month. MTD was the highest dosage with acceptable toxicity (e.g., <20% weight loss).
# [5] = head-to-head with FA, 2×-32× the MIC
Structure (SMILES),IC50 [1] [µM],"IC50 ([1]; Homo sapiens, HFF-1, 72 h) [µM]",Metabolic Stability in Mouse Liver Microsomes (percent remaining) [2] [%],Antibacterial activity relative to FA (S. aureus ATCC 29213 [3]),MIC (S. aureus ATCC 29213 [3]) [µg/mL],Resistance frequency relative to FA (S. aureus ATCC 29213 [4]; [5]),Fold Change Increase in MIC with 50% Human Serum (S. aureus 29213) [X],Tolerability (Mouse MTD / tolerability),Resistance frequency relative to FA (S. aureus ATCC 29213 [4]; only at 32× the MIC)
"CC(=O)O[C@H]1C[C@@]2(C)[C@@H](C[C@@H](O)[C@H]3[C@@]4(C)CC[C@@H](O)[C@@H](C)[C@@H]4CC[C@@]32C)/C1=C(\CCC=C(Br)Br)C(=O)O [Compound 16, (Z)-2-((3R,4S,5S,8S,9S,10S,11R,13R,14S,16S)-16-acetoxy-3,11-dihydroxy-4,8,10,14-tetramethylhexadecahydro-17H-cyclopenta[a]phenanthren-17-ylidene)-6,6-dibromohex-5-enoic acid]",75 ± 3,> 50,88 ± 2,equipotent activity to FA,0.125,worse resistance frequency relative to FA,32,,
"CC(=O)O[C@H]1C[C@@]2(C)[C@@H](C[C@@H](O)[C@H]3[C@@]4(C)CC[C@@H](O)[C@@H](C)[C@@H]4CC[C@@]32C)/C1=C(\CCC=C1CCOCC1)C(=O)O [Compound 27, (Z)-2-((3R,4S,5S,8S,9S,10S,11R,13R,14S,16S)-16-acetoxy-3,11-dihydroxy-4,8,10,14-tetramethylhexadecahydro-17H-cyclopenta[a]phenanthren-17-ylidene)-5-(tetrahydro-4H-pyran-4-ylidene)pentanoic acid]",,,86 ± 5,equipotent activity to FA,0.125,worse resistance frequency relative to FA,32,,
"CC(=O)O[C@H]1C[C@@]2(C)[C@@H](C[C@@H](O)[C@H]3[C@@]4(C)CC[C@@H](O)[C@@H](C)[C@@H]4CC[C@@]32C)/C1=C(\CCC=C(C)C)C(=O)O [Sodium fusidate, reference compound]",,,,,,,,well tolerated,
"CC(=O)O[C@H]1C[C@@]2(C)[C@@H](C[C@@H](O)[C@H]3[C@@]4(C)CC[C@@H](O)[C@@H](C)[C@@H]4CC[C@@]32C)/C1=C(\CCC=C1CCCCC1)C(=O)O [Compound 26, (Z)-2-((3R,4S,5S,8S,9S,10S,11R,13R,14S,16S)-16-acetoxy-3,11-dihydroxy-4,8,10,14-tetramethylhexadecahydro-17H-cyclopenta[a]phenanthren-17-ylidene)-5-cyclohexylidenepentanoic acid]",53 ± 4,> 50,61 ± 1,equipotent activity to FA,0.125,improvement in resistance frequency relative to FA,16,,improvement
"CC(=O)O[C@H]1C[C@@]2(C)[C@@H](C[C@@H](O)[C@H]3[C@@]4(C)CC[C@@H](O)[C@@H](C)[C@@H]4CC[C@@]32C)/C1=C(\CCC=C(I)I)C(=O)O [Compound 17, (Z)-2-((3R,4S,5S,8S,9S,10S,11R,13R,14S,16S)-16-acetoxy-3,11-dihydroxy-4,8,10,14-tetramethylhexadecahydro-17H-cyclopenta[a]phenanthren-17-ylidene)-6,6-diiodohex-5-enoic acid]",,,,modest decreases in potency relative to FA,,,,,
